Measurements taken from US20220196635A1, “Fibrosis Assay” (Georgia Tech Research Corporation, priority 2020, published 2022).

Assays:
[1] = test system: NHLF cells and diseased IPF cells (primary human lung fibroblasts) in fibrin scaffold; assay: Microscale cell-mediated fibrinolysis assay (ATPS-printed fibroblast-laden fibrin scaffolds, brightfield pixel intensity); type: cell-based; details: NHLF cells
Experimental: A stock solution of DEX (20% w/w dextran T500; Sigma) was prepared in phosphate buffered saline (PBS) on a rocker overnight. A stock solution of PEG (6% w/w, 35 k MW; Sigma) was prepared in fully supplemented culture media with 10% deionized water to balance osmolality. Both stock solutions were passed through a 0.22 um sterilizing syringe filter before storage. PEG working solutions were stored for up to 2 weeks at 4° C. Thrombin (Human Alpha Thrombin; Enzyme Research Labs) was also added to the PEG solution at a concentration of 0.1 U/mL immediately preceding experiments. Fibrinogen-DEX solutions were prepared by diluting fibrinogen stock solution (human fibrinogen 3; Enzyme Research Labs) to a final concentration of 4 mg/mL in a sterile solution of 4% 10×DMEM, 15% DEX stock solution (to a final concentration of 3% dextran), and 50% cell suspension in growth media. For all experiments excluding cell concentration evaluation, the cell suspension was diluted for 1000 cells per microliter in the final fibrinogen-DEX solution.
Normal human lung fibroblasts (NHLF lot #0000580583; […] Cells were passaged at 80-90% confluence and were sub-cultured in 1:3 ratios by trypsinization. When at the desired confluence, cells were washed with PBS and 0.05% trypsin solution was added to the flask. Cells were incubated for 2 min, diluted with fibroblast growth media, and then harvested and centrifuged (200× g, 5 min) in a conical tube. The supernatant was aspirated and the cell pellet was re-suspended in serum-free culture media. When used in fibrin degradation experiments, cells were re-suspended at 2× the final desired concentration (1000 cells/ul unless otherwise indicated). All experiments were conducted with cells at or below passage 12. In all experiments, media was changed every 48 hours and any media additives (plasminogen, TGF-β1, drugs, etc.) were included.
Working solutions of PEG with 0.1 U/mL of thrombin were warmed to 37° C. and pipetted into a 96-well plate. For production of droplets, fibrinogen-DEX solutions with cell suspension were maintained at 37° C. and pipetted directly into the PEG-thrombin media using either a manual pipette or a semi-automated 96-channel pipette (Viaflo-96; Integra). All assays utilized a volume of 1 μl unless otherwise noted. Following dispensing of the DEX phase, the plates were placed in an incubator at 37° C. for 30 min to allow the thrombin to enzymatically crosslink the fibrinogen into a fibrin matrix (FIG. 1A). The PEG-enriched media was then washed four times by removing, then replacing half of the media with PEG-free media. When applicable, the final media addition was supplemented with stimuli as detailed in Example 5 below. For the duration of each experiment, assay plates were imaged every 2 hours at 4× with an automated cell culture monitoring system (Incucyte S3; Essen Biosystems). After one day of culture, plasminogen (50 μg/mL) (Human Glu-Plasminogen; Enzyme Research Labs) was added as a 10× concentrated solution to each well in order to initiate assay degradation (FIG. 1B), unless otherwise noted for specific conditions. Fresh plasminogen was included with each subsequent media addition. Positive controls with active plasmin (1 U/ml) (Human Plasmin; Enzyme Research Labs) and negative controls without plasminogen were included in each experiment. As cells activated plasminogen, the fibrin scaffold progressively degraded as illustrated in FIG. 1C.
After each experiment, brightfield images for every time point were downloaded in jpeg format from the automated cell culture monitoring system. Python's OpenCV library was implemented for the masking approach illustrated in FIG. 2A. First, a threshold was set at 50% of the maximum intensity (128 for 8-bit integer pixel values) in order to isolate the darker pixels of semi-opaque fibrin hydrogel from the background of the image. A closing morphological filter with a 25×25 kernel was then applied to each mask in order to remove noise. […]

[2] = test system: normal human lung fibroblasts (NHLF); assay: mRNA quantification by qPCR in fibrin remodeling assay; type: cell-based
Experimental: RNA extraction and qPCR: Cells from 12 wells at the indicated time points were pooled together per condition and lysed with 350 μl of RLT lysis buffer. RNA was extracted using a RNeasy Mini Kit (Qiagen, #74104) and was performed according to the manufacturer's instructions. RNA sample concentration was measured using a NanoDrop OneC Spectrophotometer (Thermo Fisher Scientific). A High-Capacity RNA-to-cDNA Kit (Applied Biosystems, #4387406) was used for reverse transcription; 400 ng of RNA for each sample was mixed with 10 μl primer, 1 μl reverse transcriptase enzyme and nuclease-free water to bring the final reaction volume to 20 μl. The reaction was performed for 60 minutes at 37° C., followed by 5 minutes at 95° C. using a Veriti Thermal Cycler (Applied Biosystems). qPCR was performed using a QuantStudio 3 Real-Time PCR System (Applied Biosystems). Each reaction consisted of 1 μl cDNA, 10 μl TaqMan Fast advanced master mix (Applied Biosystems, #4444556), 1 μl primer, and 6 μl nuclease-free water. TaqMan primers (Applied Biosystems) for smooth muscle actin (ACTA2, Hs00426835_g1), plasminogen activator (PLAT, Hs00263492_m1), Plasminogen activator inhibitor-1 (SERPINE1, Hs00167155_m1), collagen type I (COL1A1, Hs00164004_m1), plasminogen activator (PLAU, Hs01547054_m1), and Ki67 (MKI67, Hs01032443_m1) were utilized. The QuantStudio 3 was programmed with a 2-minute hold at 95° C., followed by 40 cycles of 95° C. for 1 second and 60° C. for 20 seconds. Each sample was run with biological triplicates. The relative gene expression was calculated using the […], with glyceraldehyde-3-phosphate dehydrogenase as the housekeeping gene (GAPDH, Hs02786624_g1). Fold changes were normalized with respect to the time zero timepoint with no TGF-β1 stimulation and are reported as the mean with the error bars representing the minimum and maximum values.

[3] = higher concentrations of TGF-β1
[4] = TGF-β1 stimulation compared to the control time series

Substance: TGF-β1: Human Recombinant TGF-β1 (Peprotech), pro-fibrotic, anti-fibrinolytic stimulus
- maximum slope of fibrin degradation [1, 3]: no significant changes in slope
- 50% degradation time / delay before fibrinolysis ([1]; various concentrations of TGF-β1): longer time delays before fibrinolysis
- COL1A1 mRNA expression ([2]; TGF-β1 dose): dose-dependent increase in COL1A1
- ACTA2 (aSMA) mRNA expression ([2]; TGF-β1 dose and time course): increased expression for the highest concentration of TGF-β1
- SERPENE1 (PAI-1) mRNA expression ([2]; TGF-β1 dose and time course): significant time-dependent and dose-dependent increases in expression
- tPA (PLAT) mRNA expression [2, 4]: relative downregulation
- uPA (PLAU) mRNA expression [2, 4]: relative upregulation
- MKI67 mRNA expression (proliferation marker) [2, 3]: significantly upregulated
